For eleven compounds, IC50 results are on record in patent US20030229053A1, “Compounds and methods for the treatment or prevention of flavivirus infections” (Shire BioChem Inc., priority 2001, published 2003).

pIC50: −log10 of the molar value.

Sequence of recombinant HCV NS5B (P26663 2420-3010 limits assumed): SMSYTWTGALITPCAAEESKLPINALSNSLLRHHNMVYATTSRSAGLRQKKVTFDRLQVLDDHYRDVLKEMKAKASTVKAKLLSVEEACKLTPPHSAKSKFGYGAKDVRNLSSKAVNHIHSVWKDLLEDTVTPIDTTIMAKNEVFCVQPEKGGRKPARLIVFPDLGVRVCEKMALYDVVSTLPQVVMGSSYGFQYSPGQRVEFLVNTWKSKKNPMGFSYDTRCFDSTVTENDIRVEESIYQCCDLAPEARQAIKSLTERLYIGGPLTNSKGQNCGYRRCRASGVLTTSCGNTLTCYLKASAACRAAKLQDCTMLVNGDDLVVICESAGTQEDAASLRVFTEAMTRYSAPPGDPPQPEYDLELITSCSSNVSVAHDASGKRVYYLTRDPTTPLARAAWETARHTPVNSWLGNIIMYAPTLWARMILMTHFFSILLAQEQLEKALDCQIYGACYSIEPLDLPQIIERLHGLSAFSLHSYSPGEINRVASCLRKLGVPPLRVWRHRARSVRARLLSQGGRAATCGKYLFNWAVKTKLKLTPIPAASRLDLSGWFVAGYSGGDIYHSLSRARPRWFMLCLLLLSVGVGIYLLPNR

This test has as its target recombinant HCV NS5B (Hepatitis C virus genotype 1b, UniProt P26663). Briefly: biochemical. To be noted: flashplate, polyrA/biotinylated-oligo dT, 100 nM NS5B, 2 hrs at room temperature; read-out: RNA pol Assay 2 IC50 (μm).
For `O=C(O)[C@H](Cc1ccccc1)N(Cc1ccccc1Br)C(=O)c1ccc(Cl)cc1Cl` [compound #187, 2-[(2-Bromo-benzyl)-(2,4-dichloro-benzoyl)-amino]-3-phenyl-propionic acid], the pIC50 is 4.70 to 5.30. The value for `O=C(O)[C@H](Cc1ccccc1)N(Cc1sccc1-c1ccc(F)cc1)C(=O)c1ccc(Cl)cc1Cl` [compound #184, 2-{(2,4-Dichloro-benzoyl)-[3-(4-fluoro-phenyl)-thiophen-2-ylmethyl]-amino}-3-phenyl-propionic acid] was more than 5.30. The value for `O=C(O)C(Cc1ccccc1)N(C(=O)c1ccc(Cl)cc1Cl)c1cccc(Br)c1` (centres unmarked) [compound #190, 2-[(3-Bromo-phenyl)-(2,4-dichloro-benzoyl)-amino]-3-phenyl-propionic acid] was 4.70 to 5.30; that for `O=C(O)[C@H](Cc1ccccc1)N(C[C@H]1CCCN1)C(=O)c1ccc(Cl)cc1Cl` (stereo in doubt) [compound #168, d-2-[(2,4-Dichloro-benzoyl)-pyrrolidin-2-ylmethyl-amino]-3-phenyl-propionic acid] was 4.70 to 5.30; that for `O=C(O)C(Cc1ccccc1)N(Cc1cc(Cl)cc(Cl)c1)C(=O)c1ccc(Cl)cc1Cl` (stereo in doubt) [compound #142, (2s)-2-[(2,4-Dichloro-benzoyl)-(3,5-dichloro-benzyl)-amino]-3-phenyl-propionic acid] was more than 5.30. As to `O=C(O)C(Cc1ccccc1)N(Cc1ccc(F)c(C(F)(F)F)c1)C(=O)c1ccc(Cl)cc1Cl` (centres unmarked) [compound #173, 2-[(2,4-Dichloro-benzoyl)-(4-fluoro-3-trifluoromethyl-benzyl)-amino]-3-phenyl-propionic acid], the pIC50 was 4.70 to 5.30. The value for `N#Cc1ccc(CN(C(=O)c2ccc(Cl)cc2Cl)[C@@H](Cc2ccccc2)C(=O)O)cc1` [Compound #204, 2-[(4-CYANO-BENZYL)-(2,4-DICHLORO-BENZOYL)-AMINO]-3-PHENYL-PROPIONIC ACID] was 4.70 to 5.30; that for `O=C(O)c1cccc(CN(C(=O)c2ccc(Cl)cc2Cl)[C@@H](Cc2ccccc2)C(=O)O)c1` [Compound #193, 3-{[(1-Carboxy-2-phenyl-ethyl)-(2,4-dichloro-benzoyl)-amino]-methyl}-benzoic acid] was more than 5.30. The value for `O=C(O)[C@H](Cc1ccccc1)N(Cc1cccc([N+](=O)[O-])c1)C(=O)c1ccc(Cl)cc1Cl` [Compound #53, (2S)-2-[(2,4-Dichloro-benzoyl)-(3-nitro-benzyl)-amino]-3-phenyl-propionic acid] was more than 5.30. As for `O=C(O)[C@H](Cc1ccccc1)N(Cc1sccc1-c1cccc(C(F)(F)F)c1)C(=O)c1ccc(Cl)cc1Cl` [compound #180, 2-{(2,4-Dichloro-benzoyl)-[3-(3-trifluoromethyl-phenyl)-thiophen-2-ylmethyl]-amino}-3-phenyl-propionic acid], the figure is 4.70 to 5.30. As to `O=C(O)C(Cc1ccccc1)N(Cc1cccc(Oc2ccc(Cl)cc2)c1)C(=O)c1ccc(Cl)cc1Cl` (centres unmarked) [compound #175, 2-[[3-(4-Chloro-phenoxy)-benzyl]-(2,4-dichloro-benzoyl)-amino]-3-phenyl-propionic acid], the pIC50 is 4.70 to 5.30.

A word on the pIC50: it is the negative decadic logarithm of the IC50, by convention in mol/L.
